Source: patent publication US20090155869A1 (Gevo, Inc., priority 2006, published 2009)

Assays:
[1] = molecular target: T1, M. elsdenii Bcd (Megasphaera elsdenii, UniProt Q06319); details: inhibition of M. elsdenii Bcd; cited from earlier work
T1 sequence (Q06319 1-383): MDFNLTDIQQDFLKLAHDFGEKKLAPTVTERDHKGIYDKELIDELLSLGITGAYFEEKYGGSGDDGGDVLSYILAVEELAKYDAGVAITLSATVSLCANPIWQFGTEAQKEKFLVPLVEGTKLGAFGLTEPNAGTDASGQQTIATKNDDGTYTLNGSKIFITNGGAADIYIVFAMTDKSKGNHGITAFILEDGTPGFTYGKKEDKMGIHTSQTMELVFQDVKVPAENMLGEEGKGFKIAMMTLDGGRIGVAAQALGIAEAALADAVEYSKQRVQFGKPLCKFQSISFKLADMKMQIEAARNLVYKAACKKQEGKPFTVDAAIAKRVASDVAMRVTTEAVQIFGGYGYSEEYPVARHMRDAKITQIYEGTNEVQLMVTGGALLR

[2] = test system: C. acetobutylicum P262 Bcd; details: read-out: Km of the C. acetobutylicum P262 Bcd for butyryl-CoA; cited from earlier work
[3] = test system: Bcd; details: read-out: Km of Bcd for butyryl-CoA; unit inferred; cited from earlier work
[4] = molecular target: crotonase (Crt) from C. acetobutylicum (Clostridium acetobutylicum, UniProt P52046); details: crotonyl-CoA as substrate of C. acetobutylicum crotonase; cited from earlier work
[5] = in-vitro activity assay of Hbd homologues in lysate, NADH consumption at 340 nm; type: biochemical; details: lysate of GEVO768 (E. coli W3110Z1) transformant, 0.1 mM acetoacetyl CoA, 0.2 mM NADH, pH 7.0
Text: (§1) In particular, homologues of the pathway enzymes hydroxyl butyryl CoA dehydrogenase (Hbd), crotonase (Crt) and thiolase (Th1) were expressed and compared by in-vitro activity assay. The hydroxyl butyryl CoA dehydrogenase homologues tested were pGV1037 (Hbd from Clostridium acetobutylicum), pGV1041 (Hbd from Butyrivibrio fibrisolvens), pGV1050 (Hbd from Clostridium beijerinkii), and pGV1154 (Hbd from Clostridium acetobutylicum, codon optimized gene sequence). The crotonase homologues tested were pGV1040 (Crt from Butyrivibrio fibrisolvens), pGV1049 (Crt from Clostridium beijerinkii), pGV1094 (Crt from Clostridium acetobutylicum) and pGV1189 (Crt from Clostridium acetobutylicum, codon optimized gene sequence). The thiolase homologues tested were pGV1035 (Th1 from Clostridium acetobutylicum), pGV1039 (Th1 from Butyrivibrio fibrisolvens), and pGV1188 (Th1 from Clostridium acetobutylicum, codon optimized gene sequence). The genes were expressed and assayed as per the following outlined protocol
(§2) GEVO768 (E. coli W3110Z1) was transformed with each of the plasmids and the transformants were plated on LB media with 100 μg/mL of chloramphenicol. The plates were incubated at 37° C. for 14-16 hours. Single colonies of the clones were used to inoculate 3 mL of LB media with 100 μg/mL of chloramphenicol. The cultures were incubated overnight at 37° C. at 250 rpm. The overnight cultures were used to inoculate 50 mL of EZ-rich medium in shake flasks with 100 μg/mL of chloramphenicol. The cultures were incubated at 37° C. at 250 rpm. At mid-exponential growth phase (OD600 0.6-0.8) the cultures were induced with 1 mM IPTG. […]
(§3) To test the activity of Hbd, 10 μL of the lysate was added to 190 μL of 50 mM MOPS pH 7.0 buffer containing 0.1 mM acetoacetyl CoA, and 0.2 mM NADH. The activity of Hbd was measured by monitoring the consumption of NADH at 340 nm. […] Enzyme activity was measured by monitoring the consumption of crotonyl CoA at 263 nm. […] Enzyme activity was measured by monitoring the consumption of acetoacetyl CoA at 303 nm. […]

[6] = in-vitro activity assay of Crt homologues in lysate, crotonyl CoA consumption at 263 nm; type: biochemical; details: lysate of GEVO768 (E. coli W3110Z1) transformant, 30 μM crotonyl CoA, pH 7.6
Text: as §1, §2, §3

## CC(=O)CC(=O)O [acetoacetate]
[1]
  Ki: 0.1 µM

## CCCC(=O)SCCNC(=O)CCNC(=O)[C@H](O)C(C)(C)COP(=O)(O)OP(=O)(O)OC[C@H]1O[C@@H](n2cnc3c(N)ncnc32)[C@H](O)[C@@H]1OP(=O)(O)O [butyryl-CoA]
[2]
  Km: ~6 µM
[3]
  Km: 5 µM

## C/C=C/C(=O)SCCNC(=O)CCNC(=O)[C@H](O)C(C)(C)COP(=O)(O)OP(=O)(O)OC[C@H]1O[C@@H](n2cnc3c(N)ncnc32)[C@H](O)[C@@H]1OP(=O)(O)O [crotonyl-CoA]
[4]
  Km: 30 µM
  Vmax: 6.5×10^6 moles per min per mole

## pGV1037: plasmid-expressed Hbd from Clostridium acetobutylicum
[5]
  Specific activity (Hbd): 3.51 nmol/min/μg total cell protein

## pGV1154: plasmid-expressed Hbd from Clostridium acetobutylicum, codon optimized gene sequence
[5]
  Specific activity (Hbd): 11.69 nmol/min/μg total cell protein
[5]; listed as Hbd
  Specific activity (Hbd): 11.6 nmol/min/μg total cell protein

B1: GV1189: plasmid-expressed Crt from Clostridium acetobutylicum, codon optimized gene sequence (protein, UniProt P52046 1-261, looked up)
Short-chain-enoyl-CoA …: MELNNVILEKEGKVAVVTINRPKALNALNSDTLKEMDYVIGEIENDSEVLAVILTGAGEKSFVAGADISEMKEMNTIEGRKFGILGNKVFRRLELLEKPVIAAVNGFALGGGCEIAMSCDIRIASSNARFGQPEVGLGITPGFGGTQRLSRLVGMGMAKQLIFTAQNIKADEALRIGLVNKVVEPSELMNTAKEIANKIVSNAPVAVKLSKQAINRGMQCDIDTALAFESEAFGECFSTEDQKDAMTAFIEKRKIEGFKNR
[6]
  Specific activity (Crt): 916.99 nmol/min/μg total cell protein
[6]; listed as crotonase
  Specific activity (Crt): 1178 nmol/min/μg total cell protein

B2: pGV1094: plasmid-expressed Crt from Clostridium acetobutylicum (protein, UniProt P52046 1-261, looked up)
Short-chain-enoyl-CoA …: B1 Short-chain-enoyl-CoA …
[6]
  Specific activity (Crt): 83.39 nmol/min/μg total cell protein
